Experimental data taken from patent publication US20060069132A1, “Azolecarboxamide herbicides” (priority 2004, published 2006).

Key:
barnyardgrass [1] = assay: Test A pre-/postemergence herbicide test; format: in vivo, Echinochloa crus-galli
Summary of the method: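 Pre: seeded sandy loam, directed soil spray, compound in non-phytotoxic solvent + surfactant. Post: 1–2-leaf plants (2–10 cm), sprayed to runoff. Greenhouse ~10 d; visual injury vs untreated, 0–100 scale.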

cocklebur = assay: Test C pre-/postemergence herbicide test; format: in vivo, Xanthium strumarium; conditions: for Cocklebur plant response rating: 500 g ai/ha
Summary of the method: (§1)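 Visual injury scores run from 0 (no effect) to 100 (complete control), assessed relative to untreated controls 12 to 14 days after treatment in the greenhouse. Chemicals were formulated in a non-phytotoxic solvent mixture with surfactant and applied to soil after planting or to emerged plants at the 1- to 4-leaf stage.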

corn = assay: Test C pre-/postemergence herbicide test; format: in vivo, Zea mays; conditions: for Corn plant response rating: 500 g ai/ha
Summary of the method: as §1

large crabgrass = assay: Test C pre-/postemergence herbicide test; format: in vivo, Digitaria sanguinalis; conditions: for Crabgrass, Large plant response rating: 500 g ai/ha
Summary of the method: as §1

lambsquarters = assay: Test C pre-/postemergence herbicide test; format: in vivo, Chenopodium album
Summary of the method: as §1

eastern black nightshade = assay: Test C pre-/postemergence herbicide test; format: in vivo, Solanum ptycanthum
Summary of the method: as §1

pigweed = assay: Test C pre-/postemergence herbicide test; format: in vivo, Amaranthus retroflexus; conditions: for Pigweed plant response rating: 500 g ai/ha
Summary of the method: as §1

common ragweed = assay: Test C pre-/postemergence herbicide test; format: in vivo, Ambrosia elatior; set-up: key to Plant response rating, Ragweed: 0 = no effect, 100 = complete control; conditions: for Ragweed plant response rating: 500 g ai/ha
Summary of the method: as §1

[2] = test system: common (oilseed) sunflower; assay: Test C pre-/postemergence herbicide test; format: in vivo, Helianthus annuus
Summary of the method: as §1

velvetleaf = assay: Test C pre-/postemergence herbicide test; format: in vivo, Abutilon theophrasti; conditions: for Velvetleaf plant response rating: 500 g ai/ha
Summary of the method: as §1

[3] = test system: smallflower umbrella sedge; assay: Test C flooded paddy test; format: in vivo, Cyperus difformis
ducksalad = assay: Test C flooded paddy test; format: in vivo, Heteranthera limosa
barnyardgrass [4] = assay: Test C flooded paddy test; format: in vivo, Echinochloa crus-galli
Summary of the method: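 Scoring by eye, 12–14 days post-treatment, greenhouse-held plants vs. controls; 0 no effect, 100 complete control. Sprayed at 1–4 leaves (2–18 cm); paddy barnyardgrass at 2 leaves, flooded.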

[5] = 125 g ai/ha, scale 0 (no effect) to 100 (complete control), visual, 12 to 14 days, preemergence
[6] = 250 g ai/ha, scale 0 to 100 (0 no effect, 100 complete control), visual, 12 to 14 days, preemergence
[7] = Postemergence, 250 g ai/ha, scale 0 to 100, 0 no effect, 100 complete control
[8] = Preemergence, scale 0 to 100, 0 no effect, 100 complete control
[9] = postemergence, 125 g ai/ha, scale 0 to 100
[10] = postemergence, 62 g ai/ha, scale 0 to 100
[11] = Preemergence, 500 g ai/ha, scale 0 to 100, 0 no effect, 100 complete control
[12] = 62 g ai/ha, scale 0 to 100 (0 no effect, 100 complete control)
[13] = 125 g ai/ha, scale of 0 to 100, 0 is no effect, 100 is complete control
[14] = 250 g ai/ha, scale of 0 to 100, 0 is no effect, 100 is complete control
[15] = 500 g ai/ha, visual rating after 12 to 14 days, scale 0 to 100 (0 no effect, 100 complete control)

SMILES: CCOC(=O)c1cc(NC(=O)c2cc(C(C)(C)C)nn2CC)ccc1OC [Compound 96]
- Barnyardgrass plant response rating (barnyardgrass [1]; Postemergence, 500 g ai/ha, 0 to 100 scale, 0 no effect, 100 complete control): 60
- Plant response rating, Barnyardgrass (barnyardgrass [1]; Postemergence, 2000 g ai/ha, 0 to 100 scale, 0 no effect, 100 complete control): 80
- Barnyardgrass plant response rating (barnyardgrass [1]; Preemergence, 500 g ai/ha, visual rating, 0 to 100 scale (0 no effect, 100 complete control)): 70
- Barnyardgrass plant response rating (barnyardgrass [1]; Preemergence, 2000 g ai/ha, 0 to 100 scale, 0 no effect, 100 complete control): 90
- Plant response rating (0 = no effect, 100 = complete control), Cocklebur (cocklebur; 62 g ai/ha, preemergence): 0
- Plant response rating, Cocklebur (cocklebur; [5]): 5
- Plant response rating, Cocklebur (cocklebur; [6]): 20
- Cocklebur plant response rating (cocklebur; Postemergence, scale 0 to 100): 95
- Plant response rating, Cocklebur (cocklebur; [7]): 90
- Cocklebur plant response rating (cocklebur; [8]): 90
- Plant response rating, Cocklebur (cocklebur; [9]): 10
- Plant response rating, Cocklebur (cocklebur; [10]): 5
- Plant response rating (0 = no effect, 100 = complete control), Corn (corn; 62 g ai/ha, preemergence): 15
- Plant response rating, Corn (corn; [5]): 15
- Plant response rating, Corn (corn; [6]): 30
- Corn plant response rating (corn; Postemergence, scale 0 to 100): 45
- Plant response rating, Corn (corn; [7]): 35
- Corn plant response rating (corn; [8]): 40
- Plant response rating, Corn (corn; [9]): 30
- Plant response rating, Corn (corn; [10]): 30
- Plant response rating (0 = no effect, 100 = complete control), Crabgrass, Large (large crabgrass; 62 g ai/ha, preemergence): 85
- Plant response rating, Crabgrass, Large (large crabgrass; [5]): 100
- Plant response rating, Crabgrass, Large (large crabgrass; [6]): 100
- Crabgrass, Large plant response rating (large crabgrass; Postemergence, scale 0 to 100): 5
- Plant response rating, Crabgrass, Large (large crabgrass; [7]): 5
- Crabgrass, Large plant response rating (large crabgrass; [8]): 100
- Plant response rating, Crabgrass, Large (large crabgrass; [9]): 0
- Plant response rating, Crabgrass, Large (large crabgrass; [10]): 0
- Lambsquarters plant response rating (lambsquarters; Postemergence, 500 g ai/ha, scale 0 to 100): 100
- Plant response rating, Lambsquarters (lambsquarters; [7]): 95
- Plant response rating, Lambsquarters (lambsquarters; [9]): 80
- Plant response rating, Lambsquarters (lambsquarters; [10]): 60
- Plant response rating (0 = no effect, 100 = complete control), Nightshade (eastern black nightshade; 62 g ai/ha, preemergence): 90
- Plant response rating, Nightshade (eastern black nightshade; [5]): 95
- Nightshade plant response rating (eastern black nightshade; [11]): 100
- Plant response rating (0 = no effect, 100 = complete control), Pigweed (pigweed; 62 g ai/ha, preemergence): 100
- Plant response rating, Pigweed (pigweed; [5]): 100
- Pigweed plant response rating (pigweed; Postemergence, scale 0 to 100): 100
- Plant response rating, Pigweed (pigweed; [7]): 100
- Pigweed plant response rating (pigweed; [8]): 100
- Plant response rating, Pigweed (pigweed; [9]): 100
- Plant response rating, Pigweed (pigweed; [10]): 70
- Plant response rating (0 = no effect, 100 = complete control), Ragweed (common ragweed; 62 g ai/ha, preemergence): 50
- Plant response rating, Ragweed (common ragweed; [5]): 90
- Ragweed plant response rating (common ragweed; Postemergence, scale 0 to 100): 85
- Plant response rating, Ragweed (common ragweed; [7]): 80
- Ragweed plant response rating (common ragweed; [8]): 100
- Plant response rating, Ragweed (common ragweed; [9]): 50
- Plant response rating, Ragweed (common ragweed; [10]): 50
- Plant response rating (0 = no effect, 100 = complete control), Sunflower ([2]; 62 g ai/ha, preemergence): 0
- Plant response rating, Sunflower [2, 5]: 0
- Sunflower plant response rating [2, 11]: 35
- Plant response rating, Velvetleaf (velvetleaf; [5]): 50
- Velvetleaf plant response rating (velvetleaf; Postemergence, scale 0 to 100): 95
- Plant response rating, Velvetleaf (velvetleaf; [7]): 70
- Velvetleaf plant response rating (velvetleaf; [8]): 100
- Plant response rating, Velvetleaf (velvetleaf; [9]): 70
- Plant response rating, Velvetleaf (velvetleaf; [10]): 40
- Sedge, Umbrella plant response rating [3, 12]: 90
- Sedge, Umbrella plant response rating [3, 13]: 90
- Sedge, Umbrella plant response rating [3, 14]: 90
- Plant response rating, Sedge, Umbrella [3, 15]: 95
- Ducksalad plant response rating (ducksalad; [12]): 45
- Ducksalad plant response rating (ducksalad; [13]): 45
- Ducksalad plant response rating (ducksalad; [14]): 75
- Plant response rating, Ducksalad (ducksalad; [15]): 90
- Barnyardgrass plant response rating (barnyardgrass [4]; [12]): 45
- Barnyardgrass plant response rating (barnyardgrass [4]; [13]): 45
- Barnyardgrass plant response rating (barnyardgrass [4]; [14]): 70
- Plant response rating, Barnyardgrass (barnyardgrass [4]; [15]): 80
